Test results: PMC9573548, “Metabolic Profiling by GC-MS, In Vitro Biological Potential, and In Silico Molecular Docking Studies of Verbena officinalis” (Molecules, 2022)

Test system: T1, urease
T1 construct: jack bean is only the usual preparation; docking model 1E9Z (Helicobacter pylori) is not the assayed enzyme
Assay: indophenol (phenol-hypochlorite) ammonia assay, […] nm
Format: biochemical
Conditions: urea substrate (2.25% solution), phosphate buffer pH 7.0, room temperature, 15 min preincubation

Compound: NC(=O)NO [hydroxy urea]
- Urease IC50: 9.8 ± 1.20 mg/L
